The subject of assay [1] is HEK293. In words: NOD2 signaling inhibitors in MDP-stimulated cells, cell-based, uHTS, luminescence (AID 2001). The following applies: Homo sapiens. The format is functional.
The nature of assay [2]: non-specific 3'UTR reporter inhibition in Clone20-Shn3RL – cell-based, Renilla luciferase, cherry-picked, counter-screen for Shn3 inhibitor project, dose response (AID 624133). The assay is classed as functional.
A further assay addresses Paired box protein Pax-8 (Homo sapiens, UniProt Q06710). Put plainly: PAX8 transcriptional activity inhibition in RMG-I – RMG-I cells, luciferase, cherry-pick, dose response (AID 687027).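 Further: luciferase reporter driven by Pax8 target thyroperoxidase promoter measured by SteadyGlo luminescence.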 The format is functional, cell-based.
Another assay concerns the target Tumor necrosis factor (Homo sapiens, UniProt P01375). Put plainly: analog potency on TNFa NF-kB signaling – cell-based, revised, SAR follow-up (AID 2337). The format is functional.
The subject of assay [3] is HEK293. In words: cells. The format is functional, cell-based. Particulars: Homo sapiens.
Assay [4] in a line: loss of viability in HepG2 cells – cell-based, CellTiter-Glo, cherry-picked, cytotoxicity control for Shn3 inhibitor project, dose response (AID 624134). The format is functional. Background: Cellular ATP, detected with luciferase, serves as a proxy for viable cell number.
The test system of assay [5] is HEK293. Put plainly: cells. The following applies: Homo sapiens. The format is functional, cell-based. This is another data set of the same source.
The test system of assay [6] is HEK293. Put plainly: cells. The assay is classed as functional, cell-based. The following applies: Homo sapiens. The source holds these as a separate data set.
In assay [7] the target is Nucleotide-binding oligomerization domain-containing protein 1 (Homo sapiens, UniProt Q9Y239). In words: blockers of NOD1 pathway activity – revised, SAR follow-up (AID 2333). The format is functional.
In assay [8] the test system is HEK293. Put plainly: inhibition of NOD1-driven NF-kB reporter – cell-based, luminescence, uHTS, primary screen (AID 1578). The format is functional. The following applies: Homo sapiens.
Assay [9] deals with Nucleotide-binding oligomerization domain-containing protein 2 (Homo sapiens, UniProt Q9HC29). In words: inhibition of NOD2-driven NF-kB reporter – cell-based, luminescence, uHTS, HEK293 (AID 1566). The assay is classed as functional.
Assay [10] can be described thus: reduction of Shn3 3'UTR-driven luciferase in osteoblasts – cell-based, Clone20 osteoblasts, firefly luciferase, cherry-picked, dose response (AID 624132).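 Further: firefly luciferase luminescence from reporter carrying the Shn3 3'UTR in osteoblasts.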 The format is functional.
Assay [11] relates to HEK293. In words: cells. Particulars: Homo sapiens.
Assay [12] concerns the target Intestinal-type alkaline phosphatase (Homo sapiens, UniProt P09923). Put plainly: activation of human intestinal alkaline phosphatase – biochemical, dose response (AID 488873). The assay is classed as functional.
In assay [13] the target is T1, Zinc finger protein mex-5 (Caenorhabditis elegans, UniProt Q9XUB2).
T1 sequence (Q9XUB2 whole entry): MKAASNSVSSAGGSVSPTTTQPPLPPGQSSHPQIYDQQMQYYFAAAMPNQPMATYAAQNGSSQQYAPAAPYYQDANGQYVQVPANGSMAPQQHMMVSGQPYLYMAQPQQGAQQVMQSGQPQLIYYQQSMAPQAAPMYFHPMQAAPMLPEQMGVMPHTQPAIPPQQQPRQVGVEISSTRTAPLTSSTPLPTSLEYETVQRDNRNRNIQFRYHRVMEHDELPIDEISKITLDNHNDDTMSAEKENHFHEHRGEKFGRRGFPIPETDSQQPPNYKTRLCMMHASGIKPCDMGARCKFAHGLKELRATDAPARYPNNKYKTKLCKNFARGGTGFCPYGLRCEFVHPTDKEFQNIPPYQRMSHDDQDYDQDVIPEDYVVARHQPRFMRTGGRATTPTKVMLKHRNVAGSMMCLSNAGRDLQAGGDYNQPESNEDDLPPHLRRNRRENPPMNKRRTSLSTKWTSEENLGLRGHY
In words: potency of MEX-5 RNA-binding blockers – biochemical, C. elegans, fluorescence polarization, dose response (AID 1960). (In general: Polarisation of emitted light reports the rotation of a fluorescent probe.)

Assay [14] addresses T2, Alkaline phosphatase, tissue-nonspecific isozyme (Homo sapiens, UniProt P05186).
T2 sequence (P05186 whole entry): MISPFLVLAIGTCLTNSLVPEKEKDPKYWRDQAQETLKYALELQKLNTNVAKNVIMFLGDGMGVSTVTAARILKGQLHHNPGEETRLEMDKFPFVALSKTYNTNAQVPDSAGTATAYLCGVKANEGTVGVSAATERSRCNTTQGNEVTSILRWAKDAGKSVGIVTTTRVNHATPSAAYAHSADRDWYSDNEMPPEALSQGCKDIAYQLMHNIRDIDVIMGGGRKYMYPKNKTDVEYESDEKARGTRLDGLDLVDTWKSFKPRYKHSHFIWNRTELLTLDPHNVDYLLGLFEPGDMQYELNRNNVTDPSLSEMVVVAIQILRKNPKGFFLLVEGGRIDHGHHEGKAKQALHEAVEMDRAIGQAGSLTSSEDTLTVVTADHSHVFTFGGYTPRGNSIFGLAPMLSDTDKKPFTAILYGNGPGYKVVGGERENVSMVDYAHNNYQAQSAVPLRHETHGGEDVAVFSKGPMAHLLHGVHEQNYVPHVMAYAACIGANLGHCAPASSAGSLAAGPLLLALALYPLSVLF
Put plainly: activation of tissue-nonspecific alkaline phosphatase – biochemical, TNAP isozyme, mouse IAP uHTS hits, selectivity assay for mouse IAP activator project, dose response (AID 488880). The format is functional.

The target of assay [15] is T3, RNA-binding protein pos-1 (Caenorhabditis elegans, UniProt G5EF15).
T3 sequence (G5EF15 whole entry): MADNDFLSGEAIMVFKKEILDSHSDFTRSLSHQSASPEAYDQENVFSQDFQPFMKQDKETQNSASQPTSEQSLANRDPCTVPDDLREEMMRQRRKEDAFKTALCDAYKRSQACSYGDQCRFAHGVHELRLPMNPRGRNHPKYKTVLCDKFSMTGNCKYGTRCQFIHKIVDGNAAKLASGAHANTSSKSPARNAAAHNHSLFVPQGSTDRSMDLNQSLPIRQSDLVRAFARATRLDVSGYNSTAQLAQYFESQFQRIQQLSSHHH
Put plainly: disruptors of C. elegans POS-1 RNA interaction – biochemical, fluorescence polarization, dose response (AID 1964).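 Further: purified POS-1 fused to maltose binding protein made in E. coli; potency of compounds blocking POS-1 binding to fluorescent RNA.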

Assay [16] concerns the target Intestinal-type alkaline phosphatase (Mus musculus, UniProt P24822). Put plainly: mouse intestinal alkaline phosphatase activators, dose response, biochemical, luminescence, uHTS hits (AID 488783). The format is functional.
Assay [17] has as its target T4, G-protein coupled receptor 55 (Homo sapiens, UniProt Q9Y2T6). In words: SAR Analysis of Selective Antagonists of GPR55 using an Image-Based Assay - Set 4. [Related pubchem assays (depositor defined):AID2013, AID2026]. The format is functional.
Assay [18] addresses T5, Cannabinoid receptor 2 (Homo sapiens, UniProt P34972). Put plainly: SAR analysis of antagonists of the Cannabinoid Receptor 2 using an Image-Based Assay. [Related pubchem assays (depositor defined):AID2013, AID2026]. The format is functional.
In assay [19] the target is T6, Cannabinoid receptor 1 (Homo sapiens, UniProt P21554). Put plainly: SAR analysis of antagonists of the Cannabinoid Receptor 1 using an Image-Based Assay - Set 4. [Related pubchem assays (depositor defined):AID2013, AID2026]. The format is functional.
For assay [20], the target named is T4, G-protein coupled receptor 55. In words: inhibition of LPI-stimulated GPR55 beta-arrestin translocation – imaging, U2OS, beta-arrestin-GFP, LPI agonist, primary screen (AID 2013).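 Further: antagonist potency measured as reduced agonist-driven arrestin aggregation.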 The format is functional.
Assay [21] concerns the target T5, Cannabinoid receptor 2. Put plainly: SAR analysis of antagonists of the Cannabinoid Receptor 2 using an Image-Based Assay - Set 3. [Related pubchem assays (depositor defined):AID2013, AID2026]. The format is functional.
In assay [22] the target is T4, G-protein coupled receptor 55. In words: blockade of LPI-induced GPR55 arrestin translocation – imaging, U2OS, beta-arrestin-GFP, LPI agonist, set 2, SAR follow-up (AID 2820). The format is functional.
Assay [23] deals with T5, Cannabinoid receptor 2. In words: SAR analysis of agonists of the Cannabinoid Receptor 2 using an Image-Based Assay - Set 3. [Related pubchem assays (depositor defined):AID2013, AID2026]. The format is functional.
Assay [24] has as its target T6, Cannabinoid receptor 1. Put plainly: SAR analysis of antagonists of the Cannabinoid Receptor 1 using an Image-Based Assay - Set 2. [Related pubchem assays (depositor defined):AID2013, AID2026]. The format is functional.
Assay [25] concerns the target T6, Cannabinoid receptor 1. Put plainly: SAR analysis of agonists of the Cannabinoid Receptor 1 using an Image-Based Assay - Set 2. [Related pubchem assays (depositor defined):AID2013, AID2026]. The assay is classed as functional.
For assay [26], the target named is T7, G-protein coupled receptor 35 (Homo sapiens, UniProt Q9HC97). In words: SAR analysis of Agonists of the GPR35 Receptor using an Image-Based Assay - Set 2. [Related pubchem assays (depositor defined):AID2013, AID2026]. The format is functional.
Assay [27] has as its target T5, Cannabinoid receptor 2. Put plainly: SAR analysis of agonists of the Cannabinoid Receptor 2 using an Image-Based Assay. [Related pubchem assays (depositor defined):AID2013, AID2026]. The format is functional.
The target of assay [28] is T7, G-protein coupled receptor 35. In words: SAR analysis of Antagonists of the GPR35 Receptor using an Image-Based Assay - Set 3. [Related pubchem assays (depositor defined):AID2013, AID2026]. The assay is classed as functional.
For assay [29], the target named is SWI/SNF-related matrix-associated actin-dependent regulator of chromatin subfamily A member 2 (Homo sapiens, UniProt P51531). In words: Luminescence-based cell-based high throughput dose response assay to identify activators of the function of SWI/SNF related, matrix associated, actin dependent regulator of chromatin, subfamily a, member 2 (SMARCA2, BRM). The assay is classed as functional.

A short description of assay [30]: Counterscreen for activators of the function of SWI/SNF related, matrix associated, actin dependent regulator of chromatin, subfamily a, member 2 (SMARCA2, BRM): Luminescence-based cell-based high throughput dose response assay to identify non-selective compounds using the VP16 reporter assay. The format is functional. On the technique in general: A counterscreen serves to expose hits that act by an unwanted route or on another target.

The source made the active and inactive calls.

T6 sequence (P21554 whole entry): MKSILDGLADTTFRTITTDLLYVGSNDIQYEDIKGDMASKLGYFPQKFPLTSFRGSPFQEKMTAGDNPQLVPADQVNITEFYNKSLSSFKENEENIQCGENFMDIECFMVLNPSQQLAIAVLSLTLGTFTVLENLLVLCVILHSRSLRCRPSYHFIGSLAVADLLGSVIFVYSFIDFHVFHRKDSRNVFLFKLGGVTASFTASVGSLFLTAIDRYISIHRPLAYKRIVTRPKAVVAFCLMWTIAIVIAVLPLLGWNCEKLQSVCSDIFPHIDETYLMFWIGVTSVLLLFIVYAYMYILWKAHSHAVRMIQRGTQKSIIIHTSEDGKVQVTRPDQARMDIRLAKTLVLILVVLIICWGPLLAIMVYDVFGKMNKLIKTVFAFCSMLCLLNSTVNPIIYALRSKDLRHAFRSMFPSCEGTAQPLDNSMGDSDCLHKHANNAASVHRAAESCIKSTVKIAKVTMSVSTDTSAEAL
T7 sequence (Q9HC97 whole entry): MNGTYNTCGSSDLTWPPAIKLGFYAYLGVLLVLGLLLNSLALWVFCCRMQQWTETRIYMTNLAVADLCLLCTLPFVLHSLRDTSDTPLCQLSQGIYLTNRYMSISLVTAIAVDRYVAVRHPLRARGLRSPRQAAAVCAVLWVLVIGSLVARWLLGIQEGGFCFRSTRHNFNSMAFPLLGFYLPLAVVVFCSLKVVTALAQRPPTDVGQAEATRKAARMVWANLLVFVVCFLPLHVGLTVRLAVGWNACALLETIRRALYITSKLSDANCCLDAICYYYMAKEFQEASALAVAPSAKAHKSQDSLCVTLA
T4 sequence (Q9Y2T6 whole entry): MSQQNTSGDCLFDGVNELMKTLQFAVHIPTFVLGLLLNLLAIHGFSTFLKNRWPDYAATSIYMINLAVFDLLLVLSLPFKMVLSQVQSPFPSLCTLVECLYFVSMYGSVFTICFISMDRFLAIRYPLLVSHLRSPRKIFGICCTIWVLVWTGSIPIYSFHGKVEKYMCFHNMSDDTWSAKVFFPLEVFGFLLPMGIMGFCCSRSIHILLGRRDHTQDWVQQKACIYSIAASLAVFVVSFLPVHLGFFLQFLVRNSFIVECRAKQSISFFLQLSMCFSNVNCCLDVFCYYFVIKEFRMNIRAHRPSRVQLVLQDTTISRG
T5 sequence (P34972 whole entry): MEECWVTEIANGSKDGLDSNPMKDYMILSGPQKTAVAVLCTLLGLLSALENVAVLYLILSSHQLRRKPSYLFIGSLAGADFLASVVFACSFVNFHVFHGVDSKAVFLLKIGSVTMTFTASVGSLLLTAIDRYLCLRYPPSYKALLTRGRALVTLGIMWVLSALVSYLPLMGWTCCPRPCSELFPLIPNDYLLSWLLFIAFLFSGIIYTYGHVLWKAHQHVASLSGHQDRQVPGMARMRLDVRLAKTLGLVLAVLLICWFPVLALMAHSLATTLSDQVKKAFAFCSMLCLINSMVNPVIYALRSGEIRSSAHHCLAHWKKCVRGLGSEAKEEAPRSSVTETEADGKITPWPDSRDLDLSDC
Intestinal-type alkaline phosphatase (Mus musculus, UniProt P24822), sequence (P24822 whole entry): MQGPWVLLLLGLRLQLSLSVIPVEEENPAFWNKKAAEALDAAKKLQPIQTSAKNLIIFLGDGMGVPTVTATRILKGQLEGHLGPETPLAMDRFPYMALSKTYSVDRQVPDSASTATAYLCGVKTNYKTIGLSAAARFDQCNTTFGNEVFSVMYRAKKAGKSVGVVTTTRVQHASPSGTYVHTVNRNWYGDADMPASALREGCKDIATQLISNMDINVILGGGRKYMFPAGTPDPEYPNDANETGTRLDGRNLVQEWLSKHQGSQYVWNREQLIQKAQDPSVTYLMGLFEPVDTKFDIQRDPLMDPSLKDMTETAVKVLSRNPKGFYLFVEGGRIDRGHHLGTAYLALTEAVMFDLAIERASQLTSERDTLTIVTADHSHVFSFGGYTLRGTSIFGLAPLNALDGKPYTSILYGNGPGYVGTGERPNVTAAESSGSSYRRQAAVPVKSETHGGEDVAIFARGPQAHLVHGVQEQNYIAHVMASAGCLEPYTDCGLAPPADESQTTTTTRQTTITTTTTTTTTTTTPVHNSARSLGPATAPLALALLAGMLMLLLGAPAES
Nucleotide-binding oligomerization domain-containing protein 1, sequence (Q9Y239 whole entry, the tested form may be a part): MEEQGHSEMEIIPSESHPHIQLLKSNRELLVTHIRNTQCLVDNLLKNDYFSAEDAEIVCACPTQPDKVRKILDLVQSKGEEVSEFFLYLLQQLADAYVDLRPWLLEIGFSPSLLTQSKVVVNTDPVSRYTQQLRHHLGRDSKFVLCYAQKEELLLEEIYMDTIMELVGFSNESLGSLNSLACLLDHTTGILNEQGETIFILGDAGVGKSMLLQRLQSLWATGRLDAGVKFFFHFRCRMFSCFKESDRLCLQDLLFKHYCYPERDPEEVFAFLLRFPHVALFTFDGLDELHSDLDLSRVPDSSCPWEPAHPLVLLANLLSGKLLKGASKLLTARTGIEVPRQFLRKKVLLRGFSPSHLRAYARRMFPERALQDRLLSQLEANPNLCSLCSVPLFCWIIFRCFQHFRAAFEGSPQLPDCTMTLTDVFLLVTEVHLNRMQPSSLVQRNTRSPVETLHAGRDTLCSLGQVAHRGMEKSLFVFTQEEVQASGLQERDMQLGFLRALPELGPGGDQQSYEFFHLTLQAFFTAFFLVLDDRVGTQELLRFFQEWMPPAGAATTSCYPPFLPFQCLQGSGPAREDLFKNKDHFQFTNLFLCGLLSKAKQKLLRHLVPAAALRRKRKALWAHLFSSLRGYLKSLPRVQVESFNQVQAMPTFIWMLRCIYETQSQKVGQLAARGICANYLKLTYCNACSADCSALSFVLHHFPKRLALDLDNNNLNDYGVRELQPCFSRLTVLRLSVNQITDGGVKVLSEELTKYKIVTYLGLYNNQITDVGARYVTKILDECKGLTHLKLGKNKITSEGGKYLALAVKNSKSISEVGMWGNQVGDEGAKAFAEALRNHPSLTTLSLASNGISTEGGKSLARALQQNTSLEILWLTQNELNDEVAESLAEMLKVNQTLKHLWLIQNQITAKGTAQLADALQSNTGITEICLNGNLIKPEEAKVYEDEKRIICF
Paired box protein Pax-8, sequence (Q06710 whole entry): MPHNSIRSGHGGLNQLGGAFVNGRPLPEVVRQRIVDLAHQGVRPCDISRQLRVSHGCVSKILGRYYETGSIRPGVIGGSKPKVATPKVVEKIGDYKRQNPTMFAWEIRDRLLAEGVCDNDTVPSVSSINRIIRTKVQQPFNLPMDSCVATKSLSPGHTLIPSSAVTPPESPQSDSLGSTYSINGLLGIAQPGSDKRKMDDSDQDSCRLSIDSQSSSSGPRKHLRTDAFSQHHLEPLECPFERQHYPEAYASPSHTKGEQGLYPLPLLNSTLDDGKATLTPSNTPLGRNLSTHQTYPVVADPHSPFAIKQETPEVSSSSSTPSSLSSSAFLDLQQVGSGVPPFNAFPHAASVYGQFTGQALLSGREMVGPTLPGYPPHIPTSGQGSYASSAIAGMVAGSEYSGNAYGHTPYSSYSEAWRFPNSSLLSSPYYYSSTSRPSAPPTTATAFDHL
Tumor necrosis factor, sequence (P01375 whole entry): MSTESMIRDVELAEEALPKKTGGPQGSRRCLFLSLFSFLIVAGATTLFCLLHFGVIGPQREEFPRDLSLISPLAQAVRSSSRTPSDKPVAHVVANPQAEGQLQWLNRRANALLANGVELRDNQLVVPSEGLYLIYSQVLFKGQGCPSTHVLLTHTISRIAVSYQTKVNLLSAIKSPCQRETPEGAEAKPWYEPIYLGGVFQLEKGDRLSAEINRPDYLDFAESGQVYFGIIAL
Intestinal-type alkaline phosphatase (Homo sapiens, UniProt P09923), sequence (P09923 whole entry): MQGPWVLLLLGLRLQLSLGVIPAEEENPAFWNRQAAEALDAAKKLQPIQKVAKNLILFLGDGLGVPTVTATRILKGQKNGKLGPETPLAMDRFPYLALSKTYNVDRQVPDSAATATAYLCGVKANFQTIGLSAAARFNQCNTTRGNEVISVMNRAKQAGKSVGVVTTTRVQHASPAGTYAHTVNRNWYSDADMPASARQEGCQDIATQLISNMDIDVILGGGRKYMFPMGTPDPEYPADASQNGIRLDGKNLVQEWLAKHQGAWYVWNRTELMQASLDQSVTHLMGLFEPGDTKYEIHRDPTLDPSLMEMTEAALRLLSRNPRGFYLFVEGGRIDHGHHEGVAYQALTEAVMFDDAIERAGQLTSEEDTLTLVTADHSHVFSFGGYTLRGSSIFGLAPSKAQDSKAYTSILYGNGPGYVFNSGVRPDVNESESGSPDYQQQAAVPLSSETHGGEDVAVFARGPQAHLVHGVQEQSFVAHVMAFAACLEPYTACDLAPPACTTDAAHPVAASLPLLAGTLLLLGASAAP

Broadly, the IC50 is the midpoint of a concentration-inhibition curve. As usually defined, the AC50 is the midpoint of the concentration-response curve, whichever way the signal moves. The EC50 is the concentration at which the effect is half-maximal. Regarding `Cc1ccc(S(=O)(=O)NCc2ccc(C(=O)N3CCN(c4ccc([N+](=O)[O-])cc4)CC3)cc2)cc1`, the IC50 in the assay on HEK293 [1] was 7.59 µM (active); on Tumor necrosis factor, 11.4 µM (active); in the assay on HEK293 [3] it was > 20 µM (inactive); with HEK293 [5], 16.2 µM (active); with HEK293 [6] it was 4.67 µM (active); in [7], 9.8 µM (active). Further, the IC50 in the assay with HEK293 [11] was > 20 µM (inactive). Moreover, the AC50 in [2] is 11.7 µM (active); at Paired box protein Pax-8 it was 6.91 µM (active); in [4], 39.8 µM (active); in assay [10] it was 3.79 µM (active). The EC50 in the assay on HEK293 [8] was 4.26 µM (active); in [9] it was 6.65 µM (active).

Regarding `Cc1ccc(N2C(=O)/C(=C/c3ccc(CN(CCC#N)S(C)(=O)=O)o3)C(=O)NC2=S)cc1`, the EC50 is 36.2 µM (active) in [12]; 37.8 µM (active) in [13]; 40.4 µM (active) in [14]; > 300 µM (not active) in assay [15]; 80.5 µM (active) in assay [16].

For `CCOC(=O)c1cc2c(=O)n3ccccc3nc2n(Cc2ccccc2)c1=N`, the IC50 in [17] was > 32 µM (inactive); on Cannabinoid receptor 2 [18] it was > 32 µM (inactive); at Cannabinoid receptor 1 [19] it was 0.069 µM (active); in assay [20] it was < 0.5 µM (active); at Cannabinoid receptor 2 [21], > 32 µM (inactive); in assay [22], 0.878 µM (active). Besides, the IC50 (at Cannabinoid receptor 1 [24]; in assay [28]) was > 32 µM (inactive) in each case. The EC50 (on Cannabinoid receptor 2 [23]; on Cannabinoid receptor 1 [25]; in assay [26]; on Cannabinoid receptor 2 [27]) was > 32 µM (inactive) each time.

Consider `Cc1ccc2nc3c(cc(C(=O)NCc4ccco4)c(=N)n3C3CCCC3)c(=O)n2c1`, for which the IC50 is > 32 µM (inactive) at Cannabinoid receptor 2 [18]; 3.98 µM (active) in [20]; 0.354 µM (active) in [22]; > 32 µM (inactive) on Cannabinoid receptor 1 [24]; > 32 µM (inactive) in assay [28]. Moreover, the EC50 in assay [29] was > 91.2 µM (inactive); on Cannabinoid receptor 1 [25] it was > 32 µM (inactive); in assay [30], > 91.2 µM (inactive); in assay [26], > 32 µM (inactive); on Cannabinoid receptor 2 [27], > 32 µM (inactive).

Values taken from ChEMBL document CHEMBL1201862, “PubChem BioAssay data set” (2004).
